# Columns and labels:
# DHL-8 = assay: In situ mitochondrial cytochrome c release assay, DHL-8; type: cell-based; conditions: DHL-8, semi-permeabilized cells, 1 hour
# Description: (§1) The on-target activity of compound 12 was validated. Changes in mitochondrial integrity were observed utilizing anti-cytochrome c conjugated to Alexa488 (BD). When the mitochondria are intact, they retain cytochrome c and have bright, punctate staining with the antibody whereas cells with compromised mitochondrial integrity will lose cytochrome c and will not stain with the antibody. This can be observed by microscopy as well as measured by a shift in fluorescence on the FL1 channel of a flow cytometer.
# (§2) The selective response of mitochondria in semi-permeabilized cell lines to the compounds was observed. The assay was adapted from (Campos et al. (2006) Cytometry Part A. 69(A):515-523, which is hereby incorporated by reference in its entirety).
# (§3) Suspension cell lines SUDHL6, SUDHL8, and SUDHL10 were grown in RPMI, washed once in 1×PBS and re-suspended at a concentration of 2e6/ml in assay buffer with 0.0025% Digitonin. Assay buffer; 300 mM Trehalose, 10 mM HEPES-KOH pH 7.7, 80 mM KCl, 1 mM EGTA, 1 mM EDTA, 0.1% BSA. 5 mM Succinate. […] Cytochrome c loss was measured by microscopy. At least 100 cells per treatment were counted and scored as positive for cytochrome c loss if they lacked staining. In both methods DMSO was calculated as 0% cytochrome c loss and the Bim response for DHL6 was used to determine 100% cytochrome c loss.
# DHL-10 = assay: In situ mitochondrial cytochrome c release assay, DHL-10; type: cell-based; conditions: DHL-10 (Bax/Bak-deficient), semi-permeabilized cells, 1 hour
# Description: as §1, §2, §3
# Mcl-1 1780 cell line = assay: DAPI fluorescence cell-based cytotoxicity (apoptosis) assay, Mcl-1 1780; parameters: species or system mouse; conditions: Mcl-1 1780, 24 hours, 125 nM to 1 μM
# Method: (§4) The mouse leukemia-derived cell lines Mcl-1-1780 and Bcl-2-1863 (Ryan et al., Proc. Nat. Acad. Sci USA, 107, 12895-12900, which is hereby incorporated by reference in its entirety) were obtained under license from Dana Farber Cancer Institute. Cells were grown in RPMI 1640 medium (GIBCO-BRL) with 2 mM L-glutamine, 4.5 g/L glucose, 1.0 mM sodium pyruvate and 5% fetal bovine serum. Cells were expanded in tissue culture in appropriate media and then sub-cultured into 96-well plates at a seeding density of 20,000 cells per well. After incubation for 24 hours, cells were treated with compounds that are titrated into appropriate medium with FCS. Four concentrations of compound were used: 1 μM, 500 nM, 250 nM, and 125 nM. Assay was run in triplicate for each compound at each concentration and averages were calculated. Cells were treated with compound for 24 hours, then fixed with methanol and stained with the DNA-binding agent DAPI (4′,6-diamidino-2-phenylindole). The cells were then examined by fluorescent microscopy; cells in which caspase 3 and caspase 7 have not been activated will emit at […] when excited by […] light. Caspase-mediated cleavage of nucleosomal proteins causes condensed, pyenotic nuclear morphology that may be measured by cell counting.
# DHL-6 = assay: In situ mitochondrial cytochrome c release assay, DHL-6; type: cell-based; conditions: DHL-6 (Bax/Bak-functional), semi-permeabilized cells, 1 hour
# Description: as §1, §2, §3
# Bcl-2 1863 cell line = assay: DAPI fluorescence cell-based cytotoxicity (apoptosis) assay, Bcl-2 1863; parameters: species or system mouse; conditions: Bcl-2 1863, 24 hours, 125 nM to 1 μM
# Method: as §4
smiles,measurement,setting,value
"CCN1CCN(C(c2ccc(C(F)(F)F)cc2)c2ccc3cccnc3c2O)CC1 (centres unmarked) [compound 12, 7-((4-ethylpiperazin-1-yl)(4-(trifluoromethyl)phenyl)methyl)quinolin-8-ol]",cytochrome c release,DHL-8,reduced activity
same,cytochrome c release,DHL-10,lack of activity
same,induction of apoptosis (cells exhibiting apoptosis),Mcl-1 1780 cell line,induce apoptosis
same,cytochrome c release,DHL-6,activity
same,induction of apoptosis (cells exhibiting apoptosis),Bcl-2 1863 cell line,significantly lesser degree

# Reference: patent US10765673B2, “Methods and compositions useful for treating diseases involving Bcl-2 family proteins with quinoline derivatives” (Eutropics Pharmaceuticals, Inc., priority 2012, dated 2020)
